According to patent publication US20180111913A1, “SUBSTITUTED BENZOFURAN DERIVATIVES AS NOVEL ANTIMYCOBACTERIAL AGENTS” (priority 2015, published 2018):
Values after ≈ are worked out from the molar mass of the structure shown. Where two headings read alike, the source gives them in different places.

Columns and labels:
Mtb strain mc^27000 = assay: microbe, parasite or virus in culture; assay type: cell-based, Mycobacterium tuberculosis; conditions: for MIC: read-out: MIC
[1] = target: Mtb Pks13-TE domain (wild-type) (Mycobacterium tuberculosis, UniProt I6X8D2); assay: biochemical; assay type: biochemical; conditions: for loss / decrease in inhibitory activity compared to compound I: relative to compound I
[2] = Mycobacterium tuberculosis, Mtb mc^27000, liquid medium, 96-well plates
[3] = Pks13-TE, 20 μM 4-MUH, read-out: IC50
[4] = Mtb Pks13-TE domain, mean ± s.d. of triplicates, read-out: IC50
[5] = Mtb mc^27000, liquid medium, 96-well plates
[6] = […], mean ± s.d. of triplicates, NI: no inhibition

Mtb Pks13-TE domain (wild-type), sequence (I6X8D2 1451-1733): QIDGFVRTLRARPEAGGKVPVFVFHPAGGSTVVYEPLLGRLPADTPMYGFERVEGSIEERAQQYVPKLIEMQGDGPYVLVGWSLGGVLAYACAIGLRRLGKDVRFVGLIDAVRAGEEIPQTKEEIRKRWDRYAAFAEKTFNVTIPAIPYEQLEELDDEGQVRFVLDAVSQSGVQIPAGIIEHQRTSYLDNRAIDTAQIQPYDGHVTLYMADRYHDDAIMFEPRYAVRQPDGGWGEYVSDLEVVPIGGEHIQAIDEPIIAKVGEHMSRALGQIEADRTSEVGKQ

Compound	MIC (Mtb strain mc^27000; [2]) [µM]	IC50 [1, 3] [µM]	MIC (Mtb strain mc^27000; [5]) [µM]	other results
CCOC(=O)c1c(-c2ccccc2)oc2ccc(O)c(CN3CCC(C)CC3)c12 [compound 1]	2.3 ± 0.2 (≈ 0.905 µg/mL)	–	–	MIC (Mtb strain mc^27000; Mycobacterium tuberculosis, […], mean ± s.d. of triplicates, NI: no inhibition): 2.3 ± 0.2 µM (≈ 0.905 µg/mL)
CCOC(=O)c1c(-c2ccccc2)oc2ccc(O)c(Cc3ccccc3)c12 [compound 10]	40 (≈ 14.9 µg/mL)	11.9	–	–
CCOC(=O)c1c(-c2ccccc2)oc2cc(Cc3ccccc3)c(O)cc12 [compound 11]	28 (≈ 10.4 µg/mL)	–	–	–
CCOC(=O)c1c(-c2ccccc2)oc2ccc(O)c(C)c12 [compound 12]	20 (≈ 5.93 µg/mL)	> 20	–	–
O=C(O)c1c(-c2ccccc2)oc2ccc(O)c(CN3CCCCC3)c12 [compound 14]	–	–	–	IC50 [1, 4]: 6.6 ± 0.7 µM; loss / decrease in inhibitory activity compared to compound I [1]: ~20 fold; whole-cell activity (Mtb growth inhibition), in words (Mtb strain mc^27000; Mtb mc^27000): completely abolished
CCOC(=O)c1c(-c2ccccc2)oc2ccc(O)c(CC3CCCCC3)c12 [compound 16]	–	19.6	5.2 (≈ 1.97 µg/mL)	IC50 [1, 4]: 19.6 ± 1.4 µM; loss of inhibitory activity / higher IC50 against Pks13-TE compared to the test compound ([1]; relative to test compound): > 70 fold; MIC (Mtb strain mc^27000; [6]): 5.2 µM (≈ 1.97 µg/mL)
CCNC(=O)c1c(-c2ccccc2)oc2ccc(O)c(CN3CCCCC3)c12 [compound 18]	14 (≈ 5.3 µg/mL)	0.36	–	–
CCOC(=O)c1c(-c2ccccc2)oc2ccc(OC)c(Cc3ccccc3)c12 [compound 19]	50 (≈ 19.3 µg/mL)	50	–	–
CNC(=O)c1c(-c2ccccc2)oc2ccc(OC)c(C(O)c3ccccc3)c12 (centres unmarked) [compound 20]	50 (≈ 19.4 µg/mL)	50	–	–
CCOC(=O)c1c(-c2ccccc2)oc2ccc(OC)c(CN3CCCCC3)c12 [compound 23]	35.8 (≈ 14.1 µg/mL)	–	–	IC50 [1, 4]: 35.8 ± 2.2 µM; IC50 ([1]; Pks13-TE, read-out: IC50 (unit inferred)): ~36 µM; loss / decrease in inhibitory activity compared to compound I [1]: > 100 fold
CCOC(=O)c1c(-c2ccccc2)oc2cccc(CN3CCCCC3)c12 [compound 24]	–	2	16 (≈ 5.82 µg/mL)	IC50 [1, 4]: 2 ± 0.1 µM; loss / decrease in inhibitory activity compared to compound I [1]: ~7 fold; MIC (Mtb strain mc^27000; [6]): 16 µM (≈ 5.82 µg/mL)
CCOC(=O)c1c(-c2ccc(F)cc2)oc2ccc(O)c(CN3CCCCC3)c12 [compound 25]	–	0.35	1.5 (≈ 0.596 µg/mL)	–
CCOC(=O)c1c(-c2ccccc2)oc2cc([N+](=O)[O-])c(O)c(CN3CCCCC3)c12 [compound 26]	5.4 (≈ 2.29 µg/mL)	1.3	–	–
CCOC(=O)c1c(-c2ccccc2)oc2cc(NC(C)=O)c(O)c(CN3CCCCC3)c12 [compound 28]	–	3.1	20 (≈ 8.73 µg/mL)	–
CCOC(=O)c1c(-c2ccccc2)oc2cc(NC(C)=O)cc(CN3CCCCC3)c12 [compound 30]	20 to 27 (≈ 8.41 to 11.4 µg/mL)	–	–	–
CNC(=O)c1c(-c2ccccc2)oc2cccc(CN3CCCCC3)c12 [compound 33]	> 50	45	–	–
CCOC(=O)c1c(-c2ccccc2)oc2cc(CN3CCCCC3)cc(OC)c12 [compound 35]	40 (≈ 15.7 µg/mL)	–	–	–
CCOC(=O)c1c(-c2ccccc2)oc2cc(CN3CCCCC3)cc(O)c12 [compound 36]	40 (≈ 15.2 µg/mL)	–	–	–
CCOC(=O)c1c(-c2ccccc2)oc2cc(OC)cc(CN3CCCCC3)c12 [compound 37]	–	29	7.3 (≈ 2.87 µg/mL)	–
O=C(c1c(-c2ccccc2)oc2ccc(O)c(CN3CCCCC3)c12)N1CCCCC1 [compound 43]	–	0.32	>10	–

Compound	MIC (Mtb strain mc^27000; [2]) [µM]	IC50 [1, 3] [µM]	MIC (Mtb strain mc^27000; [5]) [µM]	other results
O=C(c1c(-c2ccccc2)oc2ccc(O)c(CN3CCCCC3)c12)N1CCOCC1 [compound 46]	> 20	0.34	–	–
CCOC(=O)c1c(-c2cccc(OC)c2)oc2ccc(O)c(CN3CCCCC3)c12 [compound 48]	1.3 (≈ 0.532 µg/mL)	0.36	–	–
CCOC(=O)c1c(-c2ccc(F)cc2)oc2cc(O)cc(CN3CCCCC3)c12 [compound 49]	–	0.4	>10	–
CCOC(=O)c1c(-c2cccc(O)c2)oc2ccc(O)c(CN3CCCCC3)c12 [compound 50]	–	0.23	0.23 (≈ 0.091 µg/mL)	–
CCOC(=O)c1c(-c2ccc(F)cc2)oc2cc(O)cc(CN3CCCCC3)c12 [compound 51]	–	0.8	>30	–
CC(C)(C)OC(=O)NC1CCN(C(=O)c2c(-c3ccccc3)oc3ccc(O)c(CN4CCCCC4)c23)CC1 [compound 53]	–	0.63	6.6 (≈ 3.52 µg/mL)	–
NC1CCN(C(=O)c2c(-c3ccccc3)oc3ccc(O)c(CN4CCCCC4)c23)CC1 [compound 54]	20 (≈ 8.67 µg/mL)	5.3	–	–
CCOC(=O)c1c(-c2ccccc2)oc2cc(O)cc(CCN)c12 [compound 55]	–	4	>20	–
CNC(=O)c1c(-c2cccc(OC)c2)oc2ccc(O)c(CN3CCCCC3)c12 [compound 56]	–	0.4	9.0 (≈ 3.55 µg/mL)	–
CNC(=O)c1c(-c2cccc(O)c2)oc2ccc(O)c(CN3CCCCC3)c12 [compound 57]	0.44 (≈ 0.167 µg/mL)	0.27	–	–
CCOC(=O)c1c(-c2ccc(O)c(F)c2)oc2ccc(O)c(CN3CCCCC3)c12 [compound 59]	0.3 (≈ 0.124 µg/mL)	0.29	–	–
CCOC(=O)c1c(-c2ccc(C(N)=O)cc2)oc2ccc(O)c(CN3CCCCC3)c12 [compound 60]	3.5 (≈ 1.48 µg/mL)	0.3	–	–
CNC(=O)c1c(-c2ccc(NC(C)=O)cc2)oc2ccc(O)c(CN3CCCCC3)c12 [compound 66]	> 20	–	–	–
CC(C)N1Cc2cc(O)cc3oc(-c4ccccc4)c(c23)C1=O [compound 71]	> 20	9	–	–
CCOC(=O)c1c(-c2ccc(F)cc2)oc2cc(O)cc(CCNC(C)CO)c12 (centres unmarked) [compound 77]	3.3 (≈ 1.32 µg/mL)	6	–	–
CNC(=O)c1c(-c2ccccc2)oc2cc(O)cc(CS(=O)(=O)NC)c12 [compound 83]	> 20	–	–	–
CNC(=O)c1c(-c2ccncc2)oc2cc(O)cc(CN3CCCCC3)c12 [compound 84]	6.1 (≈ 2.23 µg/mL)	–	–	–
CNC(=O)c1c(-c2ccnc(O)c2)oc2cc(O)cc(CN3CCCCC3)c12 [compound 85]	> 10	–	–	–
CNC(=O)c1c(-c2ccnc(OC)c2)oc2cc(OC)cc(CN3CCCCC3)c12 [compound 86]	> 20	> 20	–	–
CNC(=O)c1c(-c2ccnc(OC)c2)oc2cc(O)cc(CN3CCCCC3)c12 [compound 87]	3.3 (≈ 1.31 µg/mL)	–	–	–

Compound	MIC (Mtb strain mc^27000; [2]) [µM]	IC50 [1, 3] [µM]	MIC (Mtb strain mc^27000; [5]) [µM]	other results
CNC(=O)c1c(-c2cccc(O)c2)oc2cc(O)cc(CN3CCCCC3)c12 [compound 89]	1.2 (≈ 0.457 µg/mL)	9	–	–
CNC(=O)c1c(-c2ccccc2)oc2cc(OCC(N)=O)cc(CN3CCCCC3)c12 [compound 90]	–	–	–	inhibition at 40 µM ([1]; at 40 μM, read-out: percentage inhibition observed (IC50 column, incomplete inhibition)): 31%; inhibition at 20 µM (Mtb strain mc^27000; Mycobacterium tuberculosis, at 20 μM, read-out: percentage inhibition observed (incomplete inhibition)): 13%
CNC(=O)c1c(-c2ccccc2)oc2cc(OCCN)cc(CN3CCCCC3)c12 [compound 91]	–	10	–	inhibition at 40 µM (Mtb strain mc^27000; Mycobacterium tuberculosis, at 40 μM, read-out: percentage inhibition observed (incomplete inhibition)): 34%
CNC(=O)c1c(-c2ccccc2)oc2cc(O)cc(CN3CCOCC3)c12 [compound 94]	> 20	–	–	–
CNC(=O)c1c(-c2ccccc2)oc2cc(O)cc(CNC3CCOCC3)c12 [compound 95]	8 (≈ 3.04 µg/mL)	–	–	–
CNC(=O)c1c(-c2ccccc2)oc2cc(O)cc(CNCCO)c12 [compound 96]	9 (≈ 3.06 µg/mL)	–	–	–
CNC(=O)c1c(-c2ccccc2)oc2ccc(O)c(CCN3CCCC3)c12 [compound 101]	3.3 (≈ 1.2 µg/mL)	–	–	–
CCOC(=O)c1c(-c2ccccc2)oc2ccc(O)c(CCO)c12 [compound 106]	> 20	–	–	–
CCOC(=O)c1c(-c2ccccc2)oc2ccc(O)c(CCCO)c12 [compound 107]	> 20	–	–	–
CCOC(=O)c1c(-c2ccccc2)oc2ccc(O)c(CC(=O)N3CCCC3)c12 [compound 130]	–	–	4.1 (≈ 1.61 µg/mL)	–
CCOC(=O)c1c(-c2ccccc2)oc2ccc(O)c(CC(=O)NC3CCC3)c12 [compound 131]	–	–	7.2 (≈ 2.83 µg/mL)	–
CCOC(=O)c1c(-c2ccccc2)oc2ccc(O)c(CCN3CCC(C)CC3)c12 [compound 149]	2.3 (≈ 0.937 µg/mL)	–	–	–
CNC(=O)c1c(-c2ccccc2)oc2ccc(O)c(CCCNCc3nonc3C)c12 [compound 195]	–	–	>40	–
CC(C)NC(=O)c1c(-c2ccc(O)cc2)oc2ccc(O)c(CCCN3CCC3)c12 [compound 214]	–	–	<0.08	–
CCOC(=O)c1c(-c2ccccc2)oc2ccc(O)c(CCCCN3CCC3)c12 [compound 215]	–	–	<0.08	–
CCOC(=O)c1c(-c2ccccc2)oc2ccc(O)c(CCCNCC(F)F)c12 [compound 218]	–	–	2.8 (≈ 1.13 µg/mL)	–
CCOC(=O)c1c(-c2ccccc2)oc2ccc(O)c(CCN3CCC4(CC3)COC4)c12 [compound 267]	–	> 40	–	–
CNC(=O)c1c(-c2ccccc2)oc2ccc(O)c(CCCN3CCC3)c12 [compound 271]	–	7	–	–
